Data from patent publication US20100107281A1, “PESTICIDAL COMBINATIONS” (priority 2006, published 2010).

Tested on: Soybean Cyst Nematode (Heterodera Glycines)
Test: Soybean cyst nematode reproduction on seed-treated soybean plants in cone-tainers, eggs counted 30 days after inoculation
Type: in vivo
Conditions: soybean seed treatment
Excerpt: The expected percentage of disease control to be expected, E, for a given combination of two active ingredients can be calculated as follows (see COLBY, S. R. “Calculating synergistic and antagonistic response of herbicide combinations”. Weeds 15, pages 20-22; 1967):
wherein: X=% disease control in the case of treatment with active ingredient (A) at a defined application rate, in comparison with untreated control (=0%). Y=% disease control in the case of treatment with active ingredient (B) at a defined application rate, in comparison with untreated control. E=expected percentage of disease control (% disease control in comparison with untreated control) after treatment with active ingredient (A) and active ingredient (B) at a defined application rate. If the observed percentage of disease control O is greater than the expected value E, there is a synergistic effect.
Soybeans were planted into “cone-tainers” (3.8 cm cell diameter; 14 cm cell depth; the Ray Leach “Cone-tainer” Single Cell System consists of individual cells that can be arranged within a tray and is available from Stuewe and Sons Incorporated) in 70% sand 30% clay loam soil mix (one soybean seed per cone-tainer). The cone-tainers contained a 10 cm by 10 cm piece of cheesecloth at the bottom to prevent the soil coming out of the bottom. The soil mix was autoclaved for 60 minutes prior to use. Extra cone-tainers were planted which allowed similar size soybean plants to be selected and placed into a randomized complete block design with 3 replications of each treatment. The cone-tainers were placed into a growth chamber set at 27° C. and 14 hour day light periods. The air temperature in the growth chamber was monitored in 15 minutes intervals using a watchdog data collector. […] The water source was supplemented with fertilizer to promote plant growth.
Soil was collected from a field with “HG type” 2.5.7 (The “HG type” test is a greenhouse test that provides information on how well a soybean cyst nematode “Heterodera glycines, HG” population can reproduce in a particular soil). The soil was added to water and poured over a 25 mesh sieve over a 60 mesh sieve to collect the cysts. The soil solution collected on the 60 mesh sieve was then placed onto a 120 mesh sieve over 500 mesh sieve. […]
The soybean plants were inoculated with 6,000 soybean cyst nematode eggs 7 days after the planting of the soybeans into the cone-tainers. […] The air temperature in the growth chamber was monitored in 15 minutes intervals using a watchdog data collector. […]
The plants were removed from the growth chamber 30 days after inoculation to assess the nematode reproduction factor. […] The total number of soybean cyst nematode eggs present in each sample was determined. […]

Row | Compound | Observed Rf (nematode reproduction factor) (0.15 mg abamectin/seed, 30 days after inoculation with 6,000 eggs) | Observed Rf (nematode reproduction factor) (2.5 g acibenzolar-S-methyl/100 kg seed, 30 days after inoculation) | Observed Rf (nematode reproduction factor) (5.0 g acibenzolar-S-methyl/100 kg seed, 30 days after inoculation) | Observed Rf (nematode reproduction factor) (10.0 g acibenzolar-S-methyl/100 kg seed, 30 days after inoculation)
1 | abamectin [(A-a)] | 2.5 | – | – | –
2 | CSC(=O)c1cccc2nnsc12 [(B-1), acibenzolar-S-methyl] | – | 4.1 | 2.7 | 3.9
